Results as given in patent US9133164B2, “MIF inhibitors and their uses” (INNOV88 LLC, priority 2011, dated 2015).
Like-named read-outs stand apart in the source and are kept apart here.

Tests used:
[1] = system: anti-CD3/anti-CD28-stimulated PBMCs; experiment: Th17-specific cytokine production in anti-CD3/anti-CD28-stimulated human PBMCs (ELISA); format: cell-based; conditions: PBMC, compound at 2.5 uM, 72 hours
Description: MIF is secreted by monocytes/macrophages, activated T cells and several effector cells that play an important role in the perpetuation of inflammatory responses of the disease pathogenesis of several autoimmune and inflammatory disorders. MIF promotes the production of proinflammatory mediators such as tumor necrosis factor-α (TNF-α), interleukin (IL)-1β, IL-6 and IL-8 acting in an autocrine and paracrine function in the induction of proinflammatory responses. MIF has also been reported to stimulate the production of IL-17, a T helper 17 (Th17)-specific cytokine critical to the pathogenesis of several autoimmune and inflammatory diseases. […] Mono-Mac-6 Cells: The cellular efficacy of compound candidates is determined using the human monocytic cell line, Mono-Mac-6 cells (MM6 cells) as it has been shown that MM6 cells abundantly express MIF receptors CD74 and CXCR4. MIF-mediated signal transduction through these receptors may be important for the production of inflammatory mediators, including TNF-α, IL-1β, IL-6, IL-8, interferon-γ (IFN-γ) and prostaglandin E2 (PGE2) in these cells. To induce the production of inflammatory mediators, MM6 cells will be plated at a final concentration of 5×10^5 cells/ml in RPMI 1640 medium containing 1% heat-inactivated low-pyrogen fetal bovine serum, 2 mM GlutaMAX-I, 1% non-essential amino acids, 1% sodium pyruvate, 100 units/ml penicillin G and 100 μg/ml streptomycin (Gibco BRL Life Technologies). Cells will be stimulated with 100 ng/ml rhMIF purchased commercially or generated in house with or without inhibitor for 20 h at 37° C. with 5% CO2. The supernatants are stored at […] until they are to be assayed. The levels of inflammatory mediators will be determined using commercial :ELISA kits (eBiosciences). Human Peripheral Blood Mononuclear Cells (PBMCs): The cellular efficacy of compound candidates in inhibiting the production of proinflammatory mediators TNF-α, IL-1β, IL-6 and IL-8 following lipopolysaccharide (LPS) and rhMIF stimulation, and the production of T helper 17 (Th17)-specific cytokines IL-17F and IL-22 following anti-CD3/anti-CD28 stimulation, are determined in human PBMCs. To induce the production of proinflammatory cytokine mediators, cryopreserved human PBMCs (Cellular Technology Ltd.) are plated at a final concentration of 2×10^5 cells/ml in RPMI 1640 medium containing 1% heat-inactivated fetal bovine serum, 1% L-Glutamine and 1% Penicillin/Streptomycin (Lonza). […] Cell viability is determined using PrestoBlue™ Cell Viability Reagent (Invitrogen). The cytokine production levels of TNF-α, IL-1β, IL-6, IL-8, IL-17F and IL-22 are determined using commercial ELISA kits (eBiosciences). […]

[2] = system: LPS-stimulated PBMCs; experiment: Cytokine production in LPS-stimulated human PBMCs (ELISA); format: cell-based; conditions: Homo sapiens, PBMC, LPS-stimulated PBMCs, 1 hour preincubation, 20 hours; for inhibition at 2.5 µM: compound at 2.5 uM; for inhibition at 25 µM: compound at 25 uM
Description: MIF is secreted by monocytes/macrophages, activated T cells and several effector cells that play an important role in the perpetuation of inflammatory responses of the disease pathogenesis of several autoimmune and inflammatory disorders. MIF promotes the production of proinflammatory mediators such as tumor necrosis factor-α (TNF-α), interleukin (IL)-1β, IL-6 and IL-8 acting in an autocrine and paracrine function in the induction of proinflammatory responses. MIF has also been reported to stimulate the production of IL-17, a T helper 17 (Th17)-specific cytokine critical to the pathogenesis of several autoimmune and inflammatory diseases. […] Mono-Mac-6 Cells: The cellular efficacy of compound candidates is determined using the human monocytic cell line, Mono-Mac-6 cells (MM6 cells) as it has been shown that MM6 cells abundantly express MIF receptors CD74 and CXCR4. MIF-mediated signal transduction through these receptors may be important for the production of inflammatory mediators, including TNF-α, IL-1β, IL-6, IL-8, interferon-γ (IFN-γ) and prostaglandin E2 (PGE2) in these cells. To induce the production of inflammatory mediators, MM6 cells will be plated at a final concentration of 5×10^5 cells/ml in RPMI 1640 medium containing 1% heat-inactivated low-pyrogen fetal bovine serum, 2 mM GlutaMAX-I, 1% non-essential amino acids, 1% sodium pyruvate, 100 units/ml penicillin G and 100 μg/ml streptomycin (Gibco BRL Life Technologies). Cells will be stimulated with 100 ng/ml rhMIF purchased commercially or generated in house with or without inhibitor for 20 h at 37° C. with 5% CO2. The supernatants are stored at […] until they are to be assayed. The levels of inflammatory mediators will be determined using commercial :ELISA kits (eBiosciences). Human Peripheral Blood Mononuclear Cells (PBMCs): The cellular efficacy of compound candidates in inhibiting the production of proinflammatory mediators TNF-α, IL-1β, IL-6 and IL-8 following lipopolysaccharide (LPS) and rhMIF stimulation, and the production of T helper 17 (Th17)-specific cytokines IL-17F and IL-22 following anti-CD3/anti-CD28 stimulation, are determined in human PBMCs. To induce the production of proinflammatory cytokine mediators, cryopreserved human PBMCs (Cellular Technology Ltd.) are plated at a final concentration of 2×10^5 cells/ml in RPMI 1640 medium containing 1% heat-inactivated fetal bovine serum, 1% L-Glutamine and 1% Penicillin/Streptomycin (Lonza). Cells are pre-incubated with or without inhibitor compounds dissolved in DMSO for 1 hour, then stimulated with LPS (Sigma Aldrich) or rhMIF to yield final concentrations of <0.1% DMSO, 100 ng/ml LPS and the compound concentration of interest. The potency of the compound candidates in inhibiting cytokine production is compared, to other small molecule MIF inhibitor standards ISO-1 (EMD Chemicals) N-acetyl-p-benzoquinone imine (NAPQI) and Ibudilast (TCI America). Cells were incubated for 20 hours at 37° C., 5% CO2. For the Th17-specific cytokine production assay, cells are stimulated with 5 ug/mL plate immobilized anti-CD3 (eBioscience) and 2 ug/mL soluble anti-CD28 (eBioscience) in the presence or absence of inhibitor compounds dissolved in DMSO to yield final compound concentrations of interest at <0.1% DMSO. Cells were incubated for 72 hours at 37° C. and 5% CO2. The supernatants are stored at −20° C. until they are to be assayed by ELISA. Cell viability is determined using PrestoBlue™ Cell Viability Reagent (Invitrogen). The cytokine production levels of TNF-α, IL-1β, IL-6, IL-8, IL-17F and IL-22 are determined using commercial ELISA kits (eBiosciences). Human Rheumatoid Arthritis Synovial Fibroblast (RASF) Cell Line: RASF cells are cultured in Dulbecco's modified Eagle's medium with 15% FBS, 1% glutamine, and 1% penicillin/streptamycin (all from Gibco (Invitrogen), Gaithersburg, Md.). […]

[3] = biological target: T1, Native human MIF (Homo sapiens, UniProt P14174); experiment: MIF tautomerase activity assay (HPP substrate); format: biochemical; conditions: absorbance at 300 nm
T1 sequence (P14174 2-115 limits assumed): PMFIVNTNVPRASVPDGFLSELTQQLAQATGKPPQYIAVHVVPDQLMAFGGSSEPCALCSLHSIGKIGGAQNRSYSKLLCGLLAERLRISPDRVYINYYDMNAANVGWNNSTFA
Procedure: (§1) The ability of candidate compounds to inhibit this tautomerase activity is quantitated by wing hydroxyphenyl pyruvic acid (HPP) as a substrate and following the increase in absorbance due to the enzymatic formation of the HPP enol-borate complex at 300 nm in the absence and presence of a test compound. The IC50 value of compounds was determined by plotting the initial velocities determined at 300 nm as a function of a test compound's concentration. Assays were carried out in a 96 or 384 well plate format.
Representative MIF inhibitors were tested in the assay described above and the results tabulated in Table 1 wherein “A” represents ≦1 μM; “B” represents >1 μM and ≦100 μM; “C” represents >100 μM

[4] = biological target: T2, MIF (Homo sapiens, UniProt P14174); experiment: Time dependence in the MIF tautomerase activity assay (preincubation); format: biochemical
T2 sequence (P14174 2-115 limits assumed): T1 sequence (P14174 2-115 limits assumed)
Procedure: as §1
The MIF tautomerase and cytokine inhibitor Compound 1 was designed as a potential irreversible inhibitor of MIF tautomerase activity. In an effort to investigate this mechanism, time dependent inhibitor analysis was carried out. In this experiment MIF was preincubated [P.I.] with Compound 1 for either 0 minutes, 20 minutes or 60 minutes followed by tautomerase enzyme activity determination.
Compound 1 was preincubated with MIF as indicated (0 min-60 min) and, a tautomerase dose-response analysis was carried out.

[5] = read-out: percent inhibition of IL-17F production
[6] = read-out: percent inhibition of IL-22 production
[7] = read-out: percent inhibition of IL-1β production
[8] = read-out: percent inhibition of IL-6 production
[9] = read-out: percent inhibition of IL-8 production
[10] = read-out: percent inhibition of TNF-α production

IC50 [3] [µM]	IC50 ([4]; 0 minutes, no preincubation with MIF) [µM]	IC50 ([4]; 20 minutes preincubation with MIF) [µM]	IC50 ([4]; 60 minutes preincubation with MIF) [µM]	SMILES	inhibition at 2.5 µM [1, 5] [%]	inhibition at 2.5 µM [1, 6] [%]	inhibition at 2.5 µM [2, 7] [%]	inhibition at 2.5 µM [2, 8] [%]	inhibition at 2.5 µM [2, 9] [%]	inhibition at 2.5 µM [2, 10] [%]	inhibition at 25 µM [2, 7] [%]	inhibition at 25 µM [2, 8] [%]	inhibition at 25 µM [2, 9] [%]	inhibition at 25 µM [2, 10] [%]
> 100				C=CC(=O)N1CC(Nc2c(C#N)c(=O)n(CCOCC)c3ccccc23)C1 [Compound 3, 4-(1-Acryloyl-azetidin-3-ylamino)-1-(2-ethoxy-ethyl)-2-oxo-1,2-dihydro-quinoline-3-carbonitrile]			50 to 70	< 10	< 10	< 10	10 to 50	< 10	< 10	10 to 50
> 100				C=CC(=O)N1CCC(Nc2c(C#N)c(=O)n(C)c3ccccc23)CC1 [Compound 4, 4-(1-Acryloyl-piperidin-4-ylamino)-1-methyl-2-oxo-1,2-dihydro-quinoline-3-carbonitrile]			10 to 50	10 to 50	< 10	< 10	50 to 70	< 10	< 10	10 to 50

The remaining lines, values behind:

SMILES	IC50 [3] [µM]	IC50 ([4]; 0 minutes, no preincubation with MIF) [µM]	IC50 ([4]; 20 minutes preincubation with MIF) [µM]	IC50 ([4]; 60 minutes preincubation with MIF) [µM]	inhibition at 2.5 µM [1, 5] [%]	inhibition at 2.5 µM [1, 6] [%]	inhibition at 2.5 µM [2, 7] [%]	inhibition at 2.5 µM [2, 8] [%]	inhibition at 2.5 µM [2, 9] [%]	inhibition at 2.5 µM [2, 10] [%]	inhibition at 25 µM [2, 7] [%]	inhibition at 25 µM [2, 8] [%]	inhibition at 25 µM [2, 9] [%]	inhibition at 25 µM [2, 10] [%]
N#Cc1c(NC2CN(C(=O)CCl)C2)c2ccccc2n(Cc2ccc(F)cc2)c1=O [Compound 1, 4-[1-(2-Chloro-acetyl)-azetidin-3-ylamino]-1-(4-fluoro-benzyl)-2-oxo-1,2-dihydro-quinoline-3-carbonitrile]	1 to 100	24	6	3	> 70	> 70	> 70	10 to 50	10 to 50	10 to 50	> 70	> 70	50 to 70	> 70
C=CC(=O)N1CCN(c2c(C#N)c(=O)n(Cc3ccc(F)cc3)c3ccccc23)CC1 [Compound 2, 4-(4-acryloylpiperazin-1-yl)-1-(4-fluorobenzyl)-2-oxo-1,2-dihydroquinoline-3-carbonitrile]	1 to 100				> 70	10 to 50	> 70	< 10	< 10	10 to 50	> 70	< 10	< 10	> 70
Cn1c(=O)c(C#N)c(NC2CCN(C(=O)c3cccs3)CC2)c2ccccc21 [Compound 5]	≤ 1						50 to 70	10 to 50	< 10	10 to 50	> 70	< 10	< 10	50 to 70
